For series [1], the system named is vaccinia virus (strain Copenhagen).
The test system of series [2] is Vero cells.
Series [3] can be described thus: in vitro. As to conditions: African green monkey.
A short description of series [4]: in vitro. Conditions: human.
The test system of series [5] is vaccinia virus (strain Copenhagen). Kind of series: microbe, parasite or virus in culture. Conditions: Orthopoxvirus vaccinia, Vero, 96 h.
The test system of series [6] is Marburg pseudovirus (GP MARV). Description: microbe, parasite or virus in culture. Conditions: 24 h.
Series [7] has as its system Marburg pseudovirus (GP MARV).
Series [8] has as its system VSV-GP-EboV. As to conditions: cited from earlier work.
Series [9] relates to VV. As to conditions: cited from earlier work.
In series [10] the test system is H1N1. Conditions: cited from earlier work.

Read-outs that look alike come from different tables or passages of the source.

Consider 21 compounds from paper PMC9331314, “Synthesis and Antiviral Properties of Camphor-Derived Iminothiazolidine-4-Ones and 2,3-Dihydrothiazoles” (Molecules, 2022).

Usually IC50 stands for the concentration needed to halve the response being measured.

On to `CC1(C)[C@H]2CC[C@]1(C)/C(=N/NC(=S)Nc1ccccc1)C2` [2′a, (E)-N-phenyl-2-((1S,4S)-1,7,7-trimethylbicyclo[2.2.1]heptan-2-ylidene)hydrazinecarbothioamide], for which the figures for the concentration for half-maximal inhibition (IC50) entry in [1], in series [5] and in [6] were “lower micromolar range”, 4.3 ± 1.8 µM and 5.9 ± 2.1 µM, respectively. Moreover, in series [1], the “SI (CC50/IC50)” value came to 4. For the same compound, the results for the CC50 result in series [2], in series [3] and in series [4] were “quite toxic”, 16 ± 2.8 µM and 280 ± 38.6 µM, respectively.

As to `CNC(=S)N/N=C1\C[C@@H]2CC[C@@]1(C)C2(C)C` [2′d, (E)-N-methyl-2-((1S,4S)-1,7,7-trimethylbicyclo[2.2.1]heptan-2-ylidene)hydrazinecarbothioamide], the results for the IC50 entry in [1], in [5] and in series [6] were “low”, 35 ± 5.8 µM and 29.2 ± 4.2 µM, respectively. In addition, the results for the “SI (CC50/IC50)” value in [1] and in series [7] were 5 and 2, respectively. Besides, the CC50 result in [2] was “least cytotoxicity”; in series [3], 130 ± 14.2 µM; in series [4], 66.9 ± 18.2 µM.

`C=CCNC(=S)N/N=C1\C[C@H]2CC[C@]1(C)C2(C)C` [Compound 2b, (E)-N-allyl-2-((1R,4R)-1,7,7-trimethylbicyclo[2.2.1]heptan-2-ylidene)hydrazinecarbothioamide]: the IC50 entry in series [1] was “low”; in series [6], 24.5 ± 3.8 µM. Also, the CC50 result in series [2] is “least cytotoxicity”; in series [3], 200 ± 23.8 µM; in [4], 128 ± 37.8 µM. Further, the “SI (CC50/IC50)” value in [7] is given as 5.

With `CNC(=S)N/N=C1\C[C@H]2CC[C@]1(C)C2(C)C` [Compound 2d, (E)-N-methyl-2-((1R,4R)-1,7,7-trimethylbicyclo[2.2.1]heptan-2-ylidene)hydrazinecarbothioamide], the concentration for half-maximal inhibition (IC50) entry in series [1] was “low”; in series [5], 97 ± 19.8 µM; in series [6], 28 ± 4.2 µM. Moreover, in series [1], the “SI (CC50/IC50)” value came to 2. The CC50 entry in series [2] is “least cytotoxicity”; in series [3] it was 150 ± 17.9 µM; in series [4], 62.8 ± 17.1 µM.

With `Cn1c(-c2ccc(Cl)cc2)cs/c1=N/N=C1\C[C@H]2CC[C@]1(C)C2(C)C` [Compound 5d, (E)-4-(4-chlorophenyl)-3-methyl-2-((E)-((1R,4R)-1,7,7-trimethylbicyclo[2.2.1]heptan-2-ylidene)hydrazono)-2,3-dihydrothiazole], the CC50 entry in series [2] is “least toxic”; in series [3] it was 144 ± 18.7 µM; in series [4], 107 ± 5.3 µM. In series [7], the “SI (CC50/IC50)” value is 10. Moreover, the values for the IC50 in series [5] and in series [6] were 2.6 ± 0.2 µM and 10.7 ± 2.7 µM, respectively.

For `CC1(C)[C@@H]2CC[C@@]1(C)/C(=N/N=c1/scc(-c3ccccc3)n1-c1ccccc1)C2` [Compound 8a, (E)-3,4-diphenyl-2-((E)-((1R,4R)-1,7,7-trimethylbicyclo[2.2.1]heptan-2-ylidene)hydrazono)-2,3-dihydrothiazole], the “SI (CC50/IC50)” value in series [1] came out at 7; in series [7], 3. Further, the CC50 is 122 ± 14.7 µM in series [3] and 89.6 ± 19.9 µM in series [4]. Further, the IC50 is 18 ± 1.9 µM in series [5] and 29.9 ± 5 µM in series [6].

Regarding `C=CCn1c(-c2ccccc2)cs/c1=N/N=C1\C[C@H]2CC[C@]1(C)C2(C)C` [Compound 8b, (E)-3-allyl-4-phenyl-2-((E)-((1R,4R)-1,7,7-trimethylbicyclo[2.2.1]heptan-2-ylidene)hydrazono)-2,3-dihydrothiazole], the “SI (CC50/IC50)” value in series [1] is recorded as 6; in series [7], less than 2. The CC50 in series [3] was 17 ± 2.9 µM; in [4], less than 41 µM. Also, the concentration for half-maximal inhibition (IC50) in series [5] came out at 3 ± 0.4 µM; in series [6], 19.2 ± 2.7 µM.

Consider `CCn1c(-c2ccccc2)cs/c1=N/N=C1\C[C@H]2CC[C@]1(C)C2(C)C` [Compound 8c, (E)-3-ethyl-4-phenyl-2-((E)-((1R,4R)-1,7,7-trimethylbicyclo[2.2.1]heptan-2-ylidene)hydrazono)-2,3-dihydrothiazole], for which the “SI (CC50/IC50)” value is 6 in series [1] and less than 2 in series [7]. In addition, the values for the CC50 in series [3] and in [4] were 17 ± 3.3 µM and less than 42.4 µM, respectively. For the same compound, the values for the IC50 in [5] and in [6] were 3 ± 0.5 µM and 28.3 ± 2.8 µM, respectively.

As for `Cn1c(-c2ccccc2)cs/c1=N/N=C1\C[C@H]2CC[C@]1(C)C2(C)C` [Compound 8d, (E)-3-methyl-4-phenyl-2-((E)-((1R,4R)-1,7,7-trimethylbicyclo[2.2.1]heptan-2-ylidene)hydrazono)-2,3-dihydrothiazole], the “SI (CC50/IC50)” value in [1] is recorded as 9; in series [7] it was less than 2. Moreover, the CC50 was 14 ± 2.4 µM in [3] and less than 44.2 µM in series [4]. In addition, the 50% inhibitory concentration (IC50) is 1.5 ± 0.2 µM in series [5] and 26.5 ± 5.9 µM in series [6].

`CCN1CCN(CCC(=O)N[C@@H]2C[C@H]3CC[C@]2(C)C3(C)C)CC1` [IIIa]: in series [8], the IC50 is 0.6 µM and the SI is reported as 908.

Turning to `CC1(C)[C@@H]2CC[C@@]1(C)[C@H](NC(=O)CN1CCOCC1)C2` [IIIb], the half-maximal inhibitory concentration (IC50) was 5.7 µM in series [8] and 12.5 µM in series [9]. The results for the SI in series [8] and in series [9] were 147 and 40, respectively.

With `CC1(C)[C@H]2CC[C@]1(C)[C@H](OC(=O)CN1CCOCC1)C2` [IIa], the IC50 in [8] was 24.9 µM; in [9], 17.9 µM; in [10], 7.1 µM. Moreover, the figures for the SI in series [8], in series [9] and in series [10] were 13, 56 and 82, respectively.

For the compound `CN1CCN(CC(=O)O[C@@H]2C[C@@H]3CC[C@@]2(C)C3(C)C)CC1` [IIb], the figures for the IC50 in series [8] and in series [10] were 6.8 µM and 4.4 µM, respectively. The SI in series [8] is reported as 46; in [10], 23.

On to `CC1(C)[C@@H]2CC[C@@]1(CS(=O)(=O)N1CCOCC1)C(=O)C2` [IVa], for which, in series [8], the IC50 is 0.9 µM and the SI is reported as 921.

For the compound `CC1(C)[C@@H]2CC[C@@]1(CS(=O)(=O)n1cncn1)C(=O)C2` [IVb], in [8], the half-maximal inhibitory concentration (IC50) was 1 µM and the SI is recorded as 1764.

As for `CC1CCN(CCC(=O)O[C@@H]2C[C@@H]3CC[C@@]2(C)C3(C)C)CC1` [Ia], in series [8], the IC50 was 0.3 µM and the SI is 956.

Take `CC1(C)[C@H]2CC[C@]1(C)[C@H](OC(=O)CCN1CCOCC1)C2` [Ib]: in [9], the IC50 is 3.5 µM and the SI is given as 48. Moreover, in series [10], the IC50 was 12.2 µM and the SI is on record as 45.

Take `CN1CCN(CCC(=O)O[C@@H]2C[C@@H]3CC[C@@]2(C)C3(C)C)CC1` [Ic]: the figures for the half-inhibitory concentration (IC50) in [8] and in series [10] were 0.3 µM and 1.9 µM, respectively. Further, the SI in series [8] was 870; in series [10] it was 215.

Take `CC1(C)[C@@H]2CC[C@@]1(C)/C(=N/Nc1nc(-c3ccc(Cl)cc3)cs1)C2` [Va]: in [9], the IC50 was 2.7 µM and the SI is 24.

Turning to `CC1(C)[C@@H]2CC[C@@]1(C)/C(=N/Nc1nc(-c3ccc(Br)cc3)cs1)C2` [Vb], in series [9], the half-maximal inhibitory concentration (IC50) was 2.4 µM and the SI is listed as 32.

`COc1ccc(-c2csc(N/N=C3\C[C@H]4CC[C@]3(C)C4(C)C)n2)cc1` [Vc]: in [9], the IC50 is 3.7 µM and the SI was 26.
